The test deals with Gamma-aminobutyric acid receptor subunit alpha-1 (Rattus norvegicus, UniProt P62813).

“And” between values parts separate entries of the source, which are not always exact repeats. Equal entries are not always repeated.

As a reminder, the Ki is a dissociation constant, usually derived from enzyme kinetics or from competition with a known ligand. A low value points to higher affinity.

Chain of Gamma-aminobutyric acid receptor subunit alpha-1 (P62813 whole entry): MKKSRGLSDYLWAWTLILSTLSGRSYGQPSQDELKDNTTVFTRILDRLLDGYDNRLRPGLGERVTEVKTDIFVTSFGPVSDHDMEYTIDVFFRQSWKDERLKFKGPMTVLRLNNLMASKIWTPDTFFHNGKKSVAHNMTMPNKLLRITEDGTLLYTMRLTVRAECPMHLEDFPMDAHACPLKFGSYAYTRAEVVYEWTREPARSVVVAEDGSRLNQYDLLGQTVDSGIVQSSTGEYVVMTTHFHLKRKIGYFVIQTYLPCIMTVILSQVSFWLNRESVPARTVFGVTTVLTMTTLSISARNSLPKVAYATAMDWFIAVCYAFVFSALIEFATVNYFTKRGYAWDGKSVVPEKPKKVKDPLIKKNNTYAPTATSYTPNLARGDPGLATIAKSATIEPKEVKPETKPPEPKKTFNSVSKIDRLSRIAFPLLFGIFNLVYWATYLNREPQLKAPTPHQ

In the case of `Cc1nnc2n1-c1ccc(Cl)cc1C(c1ccccc1Cl)=NC2` [Halcion], the inhibition constant Ki is 0.34 nM and 0.31 nM and 0.55 nM and 0.45 nM.

The values are drawn from BindingDB's records for doi:10.1124/jpet.104.071282 (Neurocrine Biosciences, 2004).
